Columns and labels:
Pen. steckii = experiment: preservative activity against test fungus in calcitonin nasal composition; settings: chlorbutanol at 0.6% in calcitonin nasal pharmaceutical compositions
Source text: Very many well-known preserving agents present themselves for possible use in calcitonin pharmaceutical compositions. However experiment has shown that not all are suitable for practical use in relation to a calcitonin nasal spray.

[1] = system: ciliary beating frequency of rat trachea; experiment: ciliary beating frequency, microphoto-oscillographic method of L. Chevance et al; settings: at 0.6%, within 20 minutes
Description: 70, […] (1970). These are just some of the disadvantageous effects that can be encountered.
Moreover the compositions are well tolerated as indicated in standard tests, e.g. in that less than 50% inhibition of ciliary beating frequency is observed up to 20 minutes after administration, according to the microphoto-oscillographic method of L. Chevance et al, Acta Otolaryng. 70, 26-28 (1970).

[2] = relative bio-availability study nasal administration/intra-muscular injection of salmon calcitonin in healthy volunteers; assay type: in vivo; settings: for time serum levels remain above the detectability limit: detectability limit 26 pg/ml
Description: The study is conducted with 12 healthy volunteers, 6 male and 6 female, with a body weight of from 50 to 85 kg. Each subject receives 4 administrations of salmon calcitonin, one intra-muscularly and 3 nasally. Administration is effected at the following dosages:
B. Intra-muscular: 50 MRC units.
Nasal administration is effected using composition in accordance with example 1 and a spray-applicator delivering 55 MRC units per individual spray dosage. For the purposes of administration the subject is laid on the back with the head tilted backwards for 5 minutes. The nostrils are cleaned by blowing of the nose immediately prior to administration.
Intra-muscular administration is effected by injection of a single 1 ml dose of a composition similar to that of example 1, but omitting benzalkonium chloride and containing 50 MRC units into the glutaeus medius muscle.
Each subject receives the 4 administrations in randomized sequence, and at least 3 days are allowed between consecutive administrations. Each administration is effected in the morning after a light breakfast from which milk, butter and cheese is excluded. 100 ml water or orange juice is taken hourly following treatment to maintain urinary output. Further food is allowed not earlier than 4 hours after treatment.
Blood samples are taken immediately prior to administration (control), and at intervals of 5, 15, 30, 60, 90, 120, 180, 240, 360 and 480 minutes following administration. For the control a 20 ml sample is taken. All subsequent samples are 2 ml samples.
The concentration of salmon calcitonin in each serum sample is measured by radio-immuno-assay. Blood-pressure is controlled during the course of the trial and urine-samples tested for possible adverse reaction. Occurrence of side-effects, e.g. symptoms of nausea, is noted.
The AUC ("area under curve") for salmon calcitonin plasma concentration is calculated statistically, once employing all value, including those below the 26 pg/ml detectability limit, once with values below the detectability limit read as zero. Maximal plasma concentration and time at which this is reached are also determined. Relative bio-availability for nasal administration is determined from the relative dosage-standardized AUC (i.e. based on 50 MRC units) following nasal and intra-muscular administration.

## CC(C)(O)C(Cl)(Cl)Cl [chlorbutanol]
Pen. steckii
  time required to reduce the cell count to less than 0.1%: more than 3 days
[1]
  inhibition of the ciliary beating frequency: more than 50%

## CC(C)C[C@H](NC(=O)[C@H](CCCCN)NC(=O)CNC(=O)[C@H](CC(C)C)NC(=O)[C@@H](NC(=O)[C@@H]1CSSC[C@H](N)C(=O)N[C@@H](CO)C(=O)N[C@@H](CC(N)=O)C(=O)N[C@@H](CC(C)C)C(=O)N[C@@H](CO)C(=O)N[C@@H]([C@@H](C)O)C(=O)N1)C(C)C)C(=O)N[C@@H](CO)C(=O)N[C@@H](CCC(N)=O)C(=O)N[C@@H](CCC(=O)O)C(=O)N[C@@H](CC(C)C)C(=O)N[C@@H](Cc1c[nH]cn1)C(=O)N[C@@H](CCCCN)C(=O)N[C@@H](CC(C)C)C(=O)N[C@@H](CCC(N)=O)C(=O)N[C@H](C(=O)N[C@@H](Cc1ccc(O)cc1)C(=O)N1CCC[C@H]1C(=O)N[C@@H](CCCNC(=N)N)C(=O)N[C@H](C(=O)N[C@@H](CC(N)=O)C(=O)N[C@H](C(=O)NCC(=O)N[C@@H](CO)C(=O)NCC(=O)N[C@H](C(=O)N1CCC[C@H]1C(N)=O)[C@@H](C)O)[C@@H](C)O)[C@@H](C)O)[C@@H](C)O [salmon calcitonin]
[2]; 110 MRC units intra-nasally
  AUC values compared with 50 MRC units i.m.: comparable
[2]; 220 MRC units intra-nasally
  AUC values compared with 50 MRC units i.m.: comparable
[2]; both sexes, plasma, inhaled or intranasal, nasal vs intra-muscular, human, read-out: bio-availability (blood-plasma concentration) following nasal administration relative to levels achieved on intra-muscular injection
  F rel: ~50%
[2]; i.m. application of 50 MRC units
  time serum levels remain above the detectability limit: 6 h
[2]; nasal application of 110 MRC units
  time serum levels remain above the detectability limit: 8 h
[2]; nasal, up to the highest dosage of 220 MRC units
  adverse side-effects following nasal administrations: No adverse side-effects

From patent publication US5733569A, “Galenic compositions comprising calcitonin and their use” (Novartis Corporation, priority 1982, dated 1998)
